{
  "source": "patent US12161114B2",
  "about": "“Overpowered ABA receptor agonists” (The Regents of the University of California, priority 2018, dated 2024)",
  "key": {"[1]": {"test_system": "Arabidopsis pMAPKKK18-Luc+ reporter strain seedlings", "test": "ABA reporter gene luminescence assay", "assay_type": "in vivo", "settings": "25 μM, 6-hours post-treatment", "method": "Liquid grown Arabidopsis […]18-Luc+ reporter strain seedlings were treated with 25 μM test compounds or a mock control and 100 μM luciferin. Luminescence images were captured 6-hours post-treatment."}, "PYR1": {"target": "T1, PYR1 (Arabidopsis thaliana, UniProt O49686)", "T1 construct": "made in house", "T1 sequence (O49686 1-191)": "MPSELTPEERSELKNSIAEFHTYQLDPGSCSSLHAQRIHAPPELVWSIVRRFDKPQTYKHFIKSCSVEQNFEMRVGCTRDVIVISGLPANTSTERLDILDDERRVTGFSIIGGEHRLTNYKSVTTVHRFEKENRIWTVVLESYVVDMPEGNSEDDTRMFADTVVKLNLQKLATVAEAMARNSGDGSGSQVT", "T1 sequence (Q9CAJ0 180-511 partner limits assumed)": "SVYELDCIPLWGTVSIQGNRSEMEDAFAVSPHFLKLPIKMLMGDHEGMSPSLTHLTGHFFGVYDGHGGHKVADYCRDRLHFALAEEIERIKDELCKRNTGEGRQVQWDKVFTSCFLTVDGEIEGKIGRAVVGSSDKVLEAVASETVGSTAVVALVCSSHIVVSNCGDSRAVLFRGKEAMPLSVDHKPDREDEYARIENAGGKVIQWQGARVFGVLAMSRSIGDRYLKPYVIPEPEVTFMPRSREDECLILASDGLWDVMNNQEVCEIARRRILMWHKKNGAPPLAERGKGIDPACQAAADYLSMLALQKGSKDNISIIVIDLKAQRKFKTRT", "test": "receptor-mediated PP2C inhibition assay, fluorescence based, PYR1", "assay_type": "biochemical", "method": "Each ligand was tested at concentrations spanning 7 points between 4 nM and 50 μM in triplicate in a reaction buffer containing 100 mM Tris-HCl-pH7.9, 100 mM NaCl, 30 μg/ml BSA, 0.1% 2-mercaptoethanol, 25 nM ΔN-HAB1, 1 mM 4-methylumbelliferyl phosphate, and different recombinant ABA receptors at 50 nM or 300 nM (for PYL9 or PYL11). The substrate was added ˜20 minutes after the other components had been mixed and fluorescence data collected. Control carrier solvent-only wells were included as a reference and %-activity for tested compounds calculated relative to this control. The dose response data (PP2C activity versus agonist concentration) was fit to a log (inhibitor) vs. response-(variable slope) model using non-linear regression to infer the IC50S, using GraphPad Prism 6.0, to yield the IC50 values shown in FIG. 6.\nThe potency and selectivity of ligands 2b, 2e-f was established by testing their ability to activate multiple ABA receptor subtypes using the fluorescence based phosphasted assay as outlined in example 2 at a range of concentrations (4 nM to 50 μM). […]\nWe first explored if replacing the cyclopropyl group with an isopropyl group affects the activity of the ligand against PYR1. Ligands were tested using the fluorescence based PP2C assay described in example 2."}, "[2]": {"test_system": "wild type Columbia Arabidopsis thaliana seeds", "test": "Arabidopsis seed germination assay", "assay_type": "in vivo", "method": "Prior to selecting a scaffold for optimization we conducted Arabidopsis seed germination assays to establish if the hits obtained are activity in vivo. Germination experiments were performed with surface sterilized wild type Columbia Arabidopsis thaliana seeds and abi1C (the abi1-1 allele isolated in the Columbia ecotype) plated onto 0.7% agar medium containing 1/2-x MS salts, 0.5% sucrose and differing concentrations of the test compounds. After 4d of stratification at 4° C., the plates were transferred to a growth chamber under continuous illumination and evaluated after 4 days.\nTo establish if the in vitro potency of Opa translates into improved activity in vivo, we measured the effects of ABA, QB, AMF4, Opa and 2e on Arabidopsis seed germination at a range of concentrations to infer quantitative measures or potency. Methods similar to that described in Example 3 are followed. The percentage of germinated seeds were recorded for each chemical treatment for each concentration in quadruplicate. EC50 values denote the concentrations at which 50% of seeds have been inhibited."}, "wheat seedlings": {"test_system": "wheat seedlings", "test": "thermal imaging of leaf temperature (anti-transpirant activity), wheat", "assay_type": "in vivo, Triticum aesitivum", "method": "To evaluate the effects of the optimized ligands on transpiration, we performed quantitative thermal imaging of 2 week old wheat seedlings (var. Cal Rojo) after chemical or mock treatments. Each pot contained 15 seedlings and was treated as a single replicate for a total of n=4. Seedlings were treated with 10 mL aerosolized solutions containing compounds of interest dissolved in 0.5% DMSO and 0.05% Silwet-77 (Lehle seeds). Thermal images were collected using a FLIR T62101 camera ˜24 hours post treatment. Average leaf temperatures were obtained by averaging the temperatures measured from between 10-15 ˜1 cm^2 area spots from the 15 plants sowed in each replicate pot.\nTo gain more detailed comparisons of the potency and persistence of different ABA agonists, we treated wheat seedlings (var. WB9229) with a range of agonist concentrations (mock, 11, 33, 100, 300 μM) and collected leaf temperature data at 24 hour intervals for 5 days. Mock treated samples were analyzed with 10 replicates and chemical treatments with 5 replicates. […] The corrected p-values for treatment effects at all time points is summarized in the inset table and highlighted yellow if a significant increase in leaf temperature was observed."}},
  "data": [
    {"smiles": "N#Cc1c(C2CC2)cc(CC(=O)NC2(C(=O)O)CCCCC2)cc1C1CC1", "note": "[2f, 1-[2-(4-cyano-3,5-dicyclopropylphenyl)acetamido]cyclohexane-1-carboxylic acid]", "values": [
      {"measurement": "induction of ABA-transcriptional responses (luminescence)", "setting": "[1]", "value": "effective inducer of ABA-transcriptional responses"},
      {"measurement": "increased potency on PYR1 relative to ABA", "setting": "PYR1", "value": "~10", "unit": "×"},
      {"measurement": "test concentration (twice the EC50 for germination inhibition)", "setting": "[2]; Arabidopsis thaliana, printed value is twice the EC50, used as test concentration on mutants, read-out: twice the concentrations determined as its EC50 (inhibition of germination) (converted)", "value": 60, "unit": "nM"},
      {"measurement": "fold more active than either QB or AMF4 in seed germination inhibition", "setting": "[2]; in vivo", "value": "> 10", "unit": "x"},
      {"measurement": "inhibition of Arabidopsis seed germination (in words)", "setting": "[2]; in vivo", "value": "potently inhibits seed germination"},
      {"measurement": "anti-transpirant activity (leaf temperature)", "setting": "wheat seedlings; var. Cal Rojo, 50 μM, ~24 hours post treatment", "value": "highly efficacious anti-transpirant"},
      {"measurement": "thermal response, potency and persistence", "setting": "wheat seedlings; var. WB9229, 11, 33, 100, 300 μM, 24 hour intervals for 5 days", "value": "potent and persistent thermal response"}
    ]}
  ]
}
